Species on record: Rattus norvegicus
Experiment: DrugMatrix - Regimen: Daily Repeat
Type: toxicity, organism-based, Sprague-Dawley
Set-up: regimen Daily Repeat, gender Male, age 6-8 weeks
Conditions: in vivo, iv, vehicle 100 % SALINE; for ABSOLUTE BASOPHIL / ABSOLUTE EOSINOPHIL / ABSOLUTE LYMPHOCYTE / ABSOLUTE MONOCYTE / ABSOLUTE SEGMENTED NEUTROPHIL / BASOPHIL / EOSINOPHIL / ERYTHROCYTE COUNT / HEMATOCRIT / LEUKOCYTE COUNT / LYMPHOCYTE / MEAN CORPUSCULAR HEMOGLOBIN / MEAN CORPUSCULAR HEMOGLOBIN CONCENTRATION / MEAN CORPUSCULAR VOLUME / MONOCYTE / NEUTROPHIL / NUCLEATED RED BLOOD CELLS / PLATELET COUNT / HEMOGLOBIN: tissue Blood
[1] = 0 mg/kg, 72 h, dose level Control, time 3 day
[2] = 0 mg/kg, 72 h, tissue Plasma, dose level Control, time 3 day
[3] = 0 mg/kg, 120 h, dose level Control, time 5 day
[4] = 0 mg/kg, 120 h, tissue Plasma, dose level Control, time 5 day
[5] = 8 mg/kg, 72 h, dose level High, time 3 day
[6] = 8 mg/kg, 72 h, tissue Plasma, dose level High, time 3 day
[7] = 8 mg/kg, 120 h, dose level High, time 5 day
[8] = 8 mg/kg, 120 h, tissue Plasma, dose level High, time 5 day

OXALIPLATIN was tested, and the “ABSOLUTE BASOPHIL” value [1] was 0 CELLS/uL, the “ABSOLUTE EOSINOPHIL” value [1] was 0 CELLS/uL and the “ABSOLUTE LYMPHOCYTE” value [1] was 7637.67 CELLS/uL. For the same sequence, the “ABSOLUTE MONOCYTE” value [1] was 67.83 CELLS/uL, the “ABSOLUTE SEGMENTED NEUTROPHIL” value [1] was 661.17 CELLS/uL and the BASOPHIL [1] was 0%. The EOSINOPHIL [1] was 0%, the “ERYTHROCYTE COUNT” value [1] was 5.38 x10E6/uL and the HEMATOCRIT [1] was 33.67%. The “LEUKOCYTE COUNT” value [1] was 8.37 x10E3/uL, the LYMPHOCYTE [1] was 91.17% and the “MEAN CORPUSCULAR HEMOGLOBIN” value [1] was 23.95 pg. The “MEAN CORPUSCULAR HEMOGLOBIN CONCENTRATION” value [1] was 38.23 G/DL, the “MEAN CORPUSCULAR VOLUME” value [1] was 62.6 fL and the MONOCYTE [1] was 0.83%. For the same sequence, the NEUTROPHIL [1] was 8%, the “NUCLEATED RED BLOOD CELLS” value [1] was 0.17 /100WBC and the “PLATELET COUNT” value [1] was 865 x10E3/uL. For the same sequence, the “ALANINE AMINOTRANSFERASE” value [2] was 51.67 u/L, the “ALKALINE PHOSPHATASE” value [2] was 351.17 u/L and the “ASPARTATE AMINOTRANSFERASE” value [2] was 82.33 u/L. The “BLOOD UREA NITROGEN” value [2] was 15.17 mg/dL, the “CARBON DIOXIDE” value [2] was 34.5 mmol/L and the CHLORIDE [2] was 100 MEQ/L. The CHOLESTEROL [2] was 80.33 mg/dL, the “CREATINE PHOSPHOKINASE” value [2] was 316.5 u/L and the CREATININE [2] was 0.17 mg/dL. For the same sequence, the “LACTATE DEHYDROGENASE” value [2] was 105.67 u/L, the LIPASE [2] was 9.5 u/L and the PHOSPHORUS [2] was 10.87 mg/dL. The POTASSIUM [2] was 5.47 MEQ/L, the “TOTAL BILIRUBIN” value [2] was 0.2 mg/dL and the “TOTAL PROTEIN” value [2] was 5.83 G/DL. The “URIC ACID” value [2] was 0.83 mg/dL, the “ABSOLUTE BASOPHIL” value [3] was 0 CELLS/uL and the “ABSOLUTE EOSINOPHIL” value [3] was 0 CELLS/uL. The “ABSOLUTE LYMPHOCYTE” value [3] was 6333.5 CELLS/uL, the “ABSOLUTE MONOCYTE” value [3] was 38.83 CELLS/uL and the “ABSOLUTE SEGMENTED NEUTROPHIL” value [3] was 661 CELLS/uL. The BASOPHIL [3] was 0%, the EOSINOPHIL [3] was 0% and the “ERYTHROCYTE COUNT” value [3] was 5.44 x10E6/uL. For the same sequence, the HEMATOCRIT [3] was 34.17%, the HEMOGLOBIN [3] was 13.22 G/DL and the “LEUKOCYTE COUNT” value [3] was 7.03 x10E3/uL. The LYMPHOCYTE [3] was 90.17%, the “MEAN CORPUSCULAR HEMOGLOBIN” value [3] was 24.38 pg and the “MEAN CORPUSCULAR HEMOGLOBIN CONCENTRATION” value [3] was 38.7 G/DL. The “MEAN CORPUSCULAR VOLUME” value [3] was 62.95 fL, the MONOCYTE [3] was 0.5% and the “NUCLEATED RED BLOOD CELLS” value [3] was 0 /100WBC. The “PLATELET COUNT” value [3] was 924.33 x10E3/uL, the “ALANINE AMINOTRANSFERASE” value [4] was 52.5 u/L and the “ALKALINE PHOSPHATASE” value [4] was 364.83 u/L. The “ASPARTATE AMINOTRANSFERASE” value [4] was 82.5 u/L, the “BLOOD UREA NITROGEN” value [4] was 17 mg/dL and the “CARBON DIOXIDE” value [4] was 32.33 mmol/L. For the same sequence, the CHLORIDE [4] was 99.6 MEQ/L, the CHOLESTEROL [4] was 75.83 mg/dL and the “CREATINE PHOSPHOKINASE” value [4] was 419 u/L. It also gave a CREATININE [4] of 0.21 mg/dL, a GLUCOSE [4] of 155 mg/dL and an LIPASE [4] of 11.33 u/L. The PHOSPHORUS [4] was 10.32 mg/dL, the POTASSIUM [4] was 5.37 MEQ/L and the “TOTAL BILIRUBIN” value [4] was 0.18 mg/dL. For the same sequence, the “TOTAL PROTEIN” value [4] was 5.98 G/DL, the “URIC ACID” value [4] was 0.62 mg/dL and the “ABSOLUTE BASOPHIL” value [5] was 0 CELLS/uL. For the same sequence, the “ABSOLUTE EOSINOPHIL” value [5] was 0 CELLS/uL, the “ABSOLUTE LYMPHOCYTE” value [5] was 4377.33 CELLS/uL and the “ABSOLUTE MONOCYTE” value [5] was 16.67 CELLS/uL. The “ABSOLUTE SEGMENTED NEUTROPHIL” value [5] was 339.33 CELLS/uL, the BASOPHIL [5] was 0% and the EOSINOPHIL [5] was 0%. The “ERYTHROCYTE COUNT” value [5] was 5.41 x10E6/uL, the HEMATOCRIT [5] was 33.23% and the HEMOGLOBIN [5] was 12.83 G/DL. The “LEUKOCYTE COUNT” value [5] was 4.73 x10E3/uL, the LYMPHOCYTE [5] was 92.67% and the “MEAN CORPUSCULAR HEMOGLOBIN CONCENTRATION” value [5] was 38.63 G/DL. For the same sequence, the MONOCYTE [5] was 0.33%, the NEUTROPHIL [5] was 7% and the “NUCLEATED RED BLOOD CELLS” value [5] was 0 /100WBC. For the same sequence, the “PLATELET COUNT” value [5] was 1068.33 x10E3/uL, the “ALANINE AMINOTRANSFERASE” value [6] was 44.67 u/L and the ALBUMIN [6] was 4.3 G/DL. For the same sequence, the “ALKALINE PHOSPHATASE” value [6] was 356.33 u/L, the “ASPARTATE AMINOTRANSFERASE” value [6] was 77.33 u/L and the “BLOOD UREA NITROGEN” value [6] was 16.67 mg/dL. For the same sequence, the “CARBON DIOXIDE” value [6] was 34.33 mmol/L, the CHLORIDE [6] was 99 MEQ/L and the CHOLESTEROL [6] was 76 mg/dL. For the same sequence, the “CREATINE PHOSPHOKINASE” value [6] was 301 u/L, the CREATININE [6] was 0.12 mg/dL and the “LACTATE DEHYDROGENASE” value [6] was 153.67 u/L. The POTASSIUM [6] was 5.69 MEQ/L, the “TOTAL BILIRUBIN” value [6] was 0.2 mg/dL and the “TOTAL PROTEIN” value [6] was 6.2 G/DL. The “URIC ACID” value [6] was 0.67 mg/dL, the “ABSOLUTE BASOPHIL” value [7] was 0 CELLS/uL and the “ABSOLUTE EOSINOPHIL” value [7] was 0 CELLS/uL. For the same sequence, the “ABSOLUTE LYMPHOCYTE” value [7] was 3427.33 CELLS/uL, the “ABSOLUTE MONOCYTE” value [7] was 20 CELLS/uL and the “ABSOLUTE SEGMENTED NEUTROPHIL” value [7] was 186 CELLS/uL. The BASOPHIL [7] was 0%, the EOSINOPHIL [7] was 0% and the “ERYTHROCYTE COUNT” value [7] was 5.56 x10E6/uL. For the same sequence, the HEMATOCRIT [7] was 33.2%, the HEMOGLOBIN [7] was 12.67 G/DL and the “LEUKOCYTE COUNT” value [7] was 3.63 x10E3/uL. The LYMPHOCYTE [7] was 93.33%, the “MEAN CORPUSCULAR HEMOGLOBIN” value [7] was 22.77 pg and the “MEAN CORPUSCULAR HEMOGLOBIN CONCENTRATION” value [7] was 38.17 G/DL. For the same sequence, the MONOCYTE [7] was 0.67%, the NEUTROPHIL [7] was 6% and the “NUCLEATED RED BLOOD CELLS” value [7] was 0.33 /100WBC. For the same sequence, the “PLATELET COUNT” value [7] was 976 x10E3/uL, the “ALANINE AMINOTRANSFERASE” value [8] was 50 u/L and the “ALKALINE PHOSPHATASE” value [8] was 285.67 u/L. The “ASPARTATE AMINOTRANSFERASE” value [8] was 73.67 u/L, the “BLOOD UREA NITROGEN” value [8] was 16.67 mg/dL and the “CARBON DIOXIDE” value [8] was 33.67 mmol/L. For the same sequence, the CHLORIDE [8] was 98 MEQ/L, the CHOLESTEROL [8] was 68.33 mg/dL and the “CREATINE PHOSPHOKINASE” value [8] was 268.33 u/L. The CREATININE [8] was 0.16 mg/dL, the GLUCOSE [8] was 141 mg/dL and the “LACTATE DEHYDROGENASE” value [8] was 86 u/L. It also gave an LIPASE [8] of 9 u/L, a PHOSPHORUS [8] of 9 mg/dL and a POTASSIUM [8] of 5.38 MEQ/L. For the same sequence, the “TOTAL BILIRUBIN” value [8] was 0.13 mg/dL, the “TOTAL PROTEIN” value [8] was 6.33 G/DL and the “URIC ACID” value [8] was 0.6 mg/dL.

Reference: ChEMBL document CHEMBL3885881, “DrugMatrix”
